# Measurements published in patent US6368604B1, “Non-pyrogenic derivatives of lipid A” (priority 1997, dated 2002).
# What was measured:
# mice = settings: cited from earlier work
# HIV-1 = settings: in vivo; cited from earlier work
# HIV-1BAL = assay: Replication of HIV-1BAL in human PBMC-derived monocytes (p24 ELISA); format: cell-based; settings: 1000, 100 and 10 ng/ml for 24 hours before infection; p24 after a further 19 days
# Procedure: FIG. 5. Lipid A antagonist, lipid IVA, inhibits HIV replication. PBMCs were treated with synthetic lipid IVA at 1000 ng/ml, 100 ng/ml and 10 ng/ml for 24 hours. The treated cells were subsequently infected with 0.200 ng of HIV-1BAL (Cocchi et al, supra) for 2 hours, washed twice and incubated for a further 19 days. Culture supernatants were then collected and the level of p24 in these supernatants was measured by ELISA (R&D Systems). […] Figure Legend:
# To investigate the utility of the aforementioned findings, we investigated whether commercially available synthetic lipid IVA (ICN Inc.) suppressed the replication of HIV-1BAL in human PBMC-derived monocytes. Therefore, PBMCs were obtained as outlined in Section 6, see above, and placed into 12 well culture flat-bottom plate and incubated in CM (see example 1) for […] at 37° C. in 5% Co2. Non-adherent cells were removed and the cells were given fresh media every 2 days. After 6 days, the adherent PBMCs were treated with synthetic lipid IVA at 1000 ng/ml, 100 ng/ml and 10 ng/ml for 24 hours. […] Culture supernatants were then collected and the level of p24 in these supernatants was measured by ELISA (R&D Systems).
# PBMC-derived monocytes were obtained as outlined in Section 8, see above. […] Culture supernatants were then collected and the level of p24 in these supernatants was measured by ELISA (R&D Systems).
# human PBMCs [1] = assay: β chemokine (MIP-1α, MIP-1β, RANTES) secretion from human PBMCs, dose and time course, capture ELISA; format: cell-based
# human PBMCs [2] = assay: LPS antagonist activity: TNFα from human PBMCs stimulated with W3110 LPS mixed with test preparation; format: cell-based; settings: 1 μg/ml mixed with W3110 LPS 10 ng/ml, 8 hr
# Procedure: (§1) Quantitation of TNFα, IL-1β, IL-6, MIP-1α and MIP-1β in these culture supernatants was achieved by capture ELISA (R&D Systems).
# W3110 LPS (also cultured at 37° C.) from 1 ng/ml to 100 ng/ml alone and W3110 LPS (10 ng/ml) mixed with synthetic lipid IVA (1 μg/ml) were used as controls.
# human PBMCs [3] = assay: Human PBMC activation assay: TNFα, IL-1β, IL-6 in culture supernatants by capture ELISA; format: cell-based; settings: human PBMC culture supernatants after stimulation, 1 μg/ml, 8 hr
# Procedure: 50 ml of whole blood is mixed with an equal volume of RPMI (Life Technologies) and PBMCs are isolated by density gradient using lymphocyte separation medium according to the manufacturer's directions (Organon). The PBMCs are washed twice with RPMI then resuspended in 6 ml of ice cold sterile water and placed on ice for 30 sec to lyse the erythrocytes. The osmolarity is adjusted by adding 2 ml of ice cold 3.5% (w/v) NaCl; the PBMCs are harvested by centrifugation, washed with RPMI and resuspended in complete medium (CM; RPMI containing pyruvate, glutamine, PenStrep, and 10% endotoxin-free human AB serum (Life Technologies) at a density of 6×10^6 PBMCs/ml. CM containing the preparations to be assayed are placed into duplicate wells of a 96-well flat bottom culture late (Costar) at double the target final concentration. An equal volume of CM containing the PBMCs then is added to these wells and the culture plates are incubated at 37° C. in 5% CO2 for 8 hr. The supernatants are then removed and stored at […] Quantitation of TNFα, IL-1β, IL-6, MIP-1α, MIP-1β and RANTES in these culture supernatants is achieved by capture ELISA (R&D Systems).
# as §1
# This observation was reproduced using four unrelated PBMC donors and two separate LPS preparations. […]
molecule,measurement,setting,value
"2,3-diacyl-glucosamine-1-phosphate [lipid X]",pyrogenicity / toxicity in mice,mice,non-pyrogenic
"Cc1cn([C@H]2C[C@H](N=[N+]=[N-])[C@@H](CO)O2)c(=O)[nH]c1=O [AZT, 3′-azido-2′,3′-dideoxythymidine]",effect on viral load,HIV-1,about 1 log reduction
CCCCCCCCCCC[C@@H](O)CC(=O)N[C@H]1[C@H](OC[C@H]2O[C@H](OP(=O)(O)O)[C@H](NC(=O)C[C@H](O)CCCCCCCCCCC)[C@@H](OC(=O)C[C@H](O)CCCCCCCCCCC)[C@@H]2O)O[C@H](CO)[C@@H](OP(=O)(O)O)[C@@H]1OC(=O)C[C@H](O)CCCCCCCCCCC [Lipid IVA],replication of HIV-1BAL (p24 in supernatants),HIV-1BAL,suppresses the replication of HIV-1BAL in a dose-dependent manner
same,induction of β chemokines,human PBMCs [1],WITHOUT INDUCING […] OF β CHEMOKINES
same,TNFα,human PBMCs [2],<30 pg/mL
same,IL-1β,human PBMCs [3],13 ± 1 pg/mL
same,IL-6,human PBMCs [3],7581 ± 20 pg/mL
"CCCCCC/C=C/CCCCCC(=O)O[C@H](CCCCCCCCCCC)CC(=O)NC1C(OCC2OC(OP(=O)(O)O)C(NC(=O)CC(=O)CCCCCCCCCCC)C(OC(=O)C[C@H](O)CCCCCCC)C2O)OC(CO)C(OP(=O)(O)O)C1OC(=O)C[C@H](O)CCCCCCC (some centres unmarked) [RsDPLA, R. sphaeroides diphosphoryl lipid A]",level of RANTES after stimulation,human PBMCs [1]; human PBMCs,not significantly elevated
same,MIP-1α secretion,"human PBMCs [1]; human PBMCs, various doses",stimulated the secretion of MIP-1α and MIP-1β in a dose-dependent manner
same,MIP-1β secretion,"human PBMCs [1]; human PBMCs, various doses",stimulated the secretion of MIP-1α and MIP-1β in a dose-dependent manner
same,"time of peak production of chemokines (MIP-1α, MIP-1β) after stimulation","human PBMCs [1]; supernatants 8, 16, 24 and 48 hr after stimulation",24 h
